Activity calls are given as the source filed them. No cut-off for these calls is given here. *1 amine or outer side, *2 acyl side, *3 side chain or, on linkers, in order; H or OH if unused. Where a SMILES comes first, the peptide text is derived from it. Bridges are numbered along the chain shown (N, C = ends). [ ]: non-standard residue; d: D form. The star is where a group is joined. Met(S-mXyl) = C[S+](CC[C@H](N[*:1])C(=O)[*:2])Cc1cccc(C[*:3])c1; Biotin = O=C1N[C@H]2[C@H](CS[C@H]2CCCCC(=O)*)N1

Series [1] concerns A549. Description: In vivo inhibition of LSD1 in human A549 cells xenografted in athymic nude BALB/c ASlac-nu mouse at 20 mg/kg, sc everyday for 28 days by IHC analysis. Format: functional, organism-based. As to conditions: time 28.0 day.
Series [2] concerns T47D. Description: Induction of apoptosis in human T47D cells assessed as late apoptotic cells incubated for 24 hrs by Annexin V-FITC/PI staining based flow cytometry (reference value: 0.898 %). Format: functional.
The test system of series [3] is T47D. Description: Induction of apoptosis in human T47D cells assessed as early apoptotic cells incubated for 24 hrs by Annexin V-FITC/PI staining based flow cytometry (reference value: 0.274 %). Format: functional. Background: A flow cytometer gives signals particle by particle.
Series [4] is described as follows: Toxicity in athymic nude BALB/c ASlac-nu mouse xenografted with human A549 cells assessed as body weight loss at 20 mg/kg, sc everyday for 28 days. Format: organism-based. Conditions: in vivo, 672 h, time 28 day.
The test system of series [5] is A549. Description: Induction of cell cycle arrest in human A549 cells assessed as cell accumulation at G2 phase at 50 uM incubated for 24 hrs by RNase/PI staining based flow cytometry (reference value: 9.81 %). The series is classed as functional.
Series [6] relates to T47D. Description: Induction of apoptosis in human T47D cells assessed as necrotic cells incubated for 24 hrs by Annexin V-FITC/PI staining based flow cytometry (reference value: 0.243 %). Format: functional.
Series [7] deals with A549. Description: Induction of cell cycle arrest in human A549 cells assessed as cell accumulation at S phase at 50 uM incubated for 24 hrs by RNase/PI staining based flow cytometry (reference value: 39.60 %). Format: functional.
In series [8] the test system is A549. Briefly: Induction of cell cycle arrest in human A549 cells assessed as cell accumulation at G1 phase at 50 uM incubated for 24 hrs by RNase/PI staining based flow cytometry (reference value: 49.19 %). The series is classed as functional.
The subject of series [9] is T47D. Description: Induction of apoptosis in human T47D cells assessed as viable cells incubated for 24 hrs by Annexin V-FITC/PI staining based flow cytometry (reference value: 98.6 %). Format: functional.
Series [10] concerns the target T1, Amine oxidase [flavin-containing] A (Homo sapiens, UniProt P21397).
T1 sequence (P21397 whole entry): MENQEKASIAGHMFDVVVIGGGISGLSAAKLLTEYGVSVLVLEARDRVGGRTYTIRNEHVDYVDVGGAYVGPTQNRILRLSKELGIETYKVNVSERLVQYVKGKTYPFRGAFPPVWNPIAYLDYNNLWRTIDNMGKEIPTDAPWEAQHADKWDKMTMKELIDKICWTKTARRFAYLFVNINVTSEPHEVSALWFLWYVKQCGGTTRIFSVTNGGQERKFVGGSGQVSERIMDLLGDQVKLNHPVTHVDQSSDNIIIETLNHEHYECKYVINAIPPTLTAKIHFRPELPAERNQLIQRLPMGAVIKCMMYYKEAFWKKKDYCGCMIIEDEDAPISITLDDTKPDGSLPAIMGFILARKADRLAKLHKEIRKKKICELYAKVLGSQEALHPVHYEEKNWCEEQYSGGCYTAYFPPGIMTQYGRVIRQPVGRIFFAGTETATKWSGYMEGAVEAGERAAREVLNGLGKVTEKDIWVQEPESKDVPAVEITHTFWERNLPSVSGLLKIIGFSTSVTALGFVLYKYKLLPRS
Briefly: Inhibition of MAO-A (unknown origin) incubated for 10 mins by fluorescence based assay.

For series [11], the system named is A549. Description: Cytotoxicity against human A549 cells assessed as cell viability at 100 uM incubated for 24 hrs by MTT assay relative to control. As to conditions: A549, 24 h, read-out: Activity.
In series [12] the target is T2, Phospholipid hydroperoxide glutathione peroxidase GPX4 (Homo sapiens) (UniProt P36969).
T2 sequence (whole entry): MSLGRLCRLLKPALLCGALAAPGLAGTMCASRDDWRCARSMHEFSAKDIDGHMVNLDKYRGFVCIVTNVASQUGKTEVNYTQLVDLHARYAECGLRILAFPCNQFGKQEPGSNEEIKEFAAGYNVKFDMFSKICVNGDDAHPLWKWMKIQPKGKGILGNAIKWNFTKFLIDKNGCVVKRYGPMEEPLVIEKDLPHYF
Description: Binding affinity to GPX4 (unknown origin) at 50 uM incubated for 12 hrs by SDS-PAGE analysis.

The test system of series [13] is T47D. Briefly: Cytotoxicity against human T47D cells assessed as cell viability at 100 uM incubated for 24 hrs by MTT assay relative to control. Conditions: read-out: Activity. For orientation: Tetrazolium dyes change colour on reduction, which living cells bring about.
Series [14] concerns A549. Conditions: Homo sapiens, dose 20.0 mg/kg, route sc, time 28.0 day.
Series [15] addresses Apoptosis regulator Bcl-2 (Homo sapiens) (UniProt P10415). Briefly: Binding affinity to BCL2 (unknown origin) at 50 uM incubated for 12 hrs by SDS-PAGE analysis.
In series [16] the target is Lysine-specific histone demethylase 1A (Homo sapiens) (UniProt O60341). Briefly: Covalent binding affinity to full-length human LSD1 transfected in HEK293T cell lysate at 40 uM incubated overnight by biotin-pull down assay. Format: subcellular.

Sequence of Apoptosis regulator Bcl-2 (Homo sapiens) (P10415 whole entry): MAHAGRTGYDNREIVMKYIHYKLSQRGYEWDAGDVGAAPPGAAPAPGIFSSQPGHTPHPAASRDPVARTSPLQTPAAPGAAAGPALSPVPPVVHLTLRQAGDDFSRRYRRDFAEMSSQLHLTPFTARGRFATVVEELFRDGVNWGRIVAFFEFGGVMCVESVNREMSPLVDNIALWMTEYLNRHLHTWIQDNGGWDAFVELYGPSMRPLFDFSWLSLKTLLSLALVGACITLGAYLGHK

`O=C(O)c1ccc(CN2CCC(CN[C@@H]3C[C@H]3c3ccccc3)CC2)cc1` [GSK2879552]: the inhibition result with A549 [1] is “Active”. For the same compound, the Activity in the series with T47D [2] was 1.74%; in the series with T47D [3], 1.62%; in [4], “Non-Toxic”; in the series on A549 [5] it was 9.92%; in the series on T47D [6], 0.743%; with A549 [7] it was 36.7%. The Activity was 53.15% in the series on A549 [8] and 95.9% in the series on T47D [9].

As to Ac-PRSFLVRKPRRRRW-NH2, the inhibition entry in the series on A549 [1] was “Active”. Also, the Activity in the series with T47D [2] was 2.19%; in the series on T47D [3], 1.49%; in [4], “Non-Toxic”; with A549 [5] it was 7.96%; with T47D [6] it was 0.088%; in the series on A549 [7], 34.2%. Also, the Activity with A549 [8] is 57.34%; in the series with T47D [9], 96.3%.

Consider `CC(=O)N1CCC[C@H]1C(=O)N[C@@H](CCCNC(=N)N)C(=O)N[C@H]1CSCc2cccc(c2)C[S+](C)CC[C@@H](C(=O)N[C@@H](CCCCN)C(=O)N2CCC[C@H]2C(=O)N[C@@H](CCCNC(=N)N)C(=O)N[C@@H](CCCNC(=N)N)C(=O)N[C@@H](CCCNC(=N)N)C(=O)N[C@@H](CCCNC(=N)N)C(=O)N[C@@H](Cc2c[nH]c3ccccc23)C(N)=O)NC(=O)[C@H](C(C)C)NC(=O)[C@H](CC(C)C)NC(=O)[C@H](Cc2ccccc2)NC1=O` (stereo not given in full) (Ac-PRCFLV[Met(S-mXyl)]KPRRRRW-NH2; thioether 3-7), for which the inhibition result in the series with A549 [1] and with A549 [14] was “Active” in each case. Besides, the Activity with T47D [2] is listed as 46.7%; with T47D [3], 0%; in series [4] it was “Non-Toxic”; in the series on A549 [5], 12%; in the series on T47D [6], 51.2%; in the series with A549 [7] it was 27.23%. Further, the Activity in the series on A549 [8] was 60.61%; with T47D [9], 2.14%. Further, the “inhibition (INH)” value in [10] is reported as “Not Active”. Further, the values for the viability at 100 µM in the series on A549 [11] and in the series with T47D [13] were around 19.9% and around 7.4%, respectively. Also, the outcome in [12] and in [15] was inactive.

On to `CC(=O)N1CCC[C@H]1C(=O)N[C@@H](CCCNC(=N)N)C(=O)N[C@H]1CSCc2cccc(c2)C[S+](C)CC[C@@H](C(=O)N[C@@H](CCCCNC(=O)CCCC[C@@H]2SC[C@@H]3NC(=O)N[C@@H]32)C(=O)N2CCC[C@H]2C(=O)N[C@@H](Cc2c[nH]c3ccccc23)C(N)=O)NC(=O)[C@H](C(C)C)NC(=O)[C@H](CC(C)C)NC(=O)[C@H](Cc2ccccc2)NC1=O` (stereo not given in full) (Ac-PRCFLV[Met(S-mXyl)]K(Biotin)PW-NH2; thioether 3-7), for which the outcome in [16] was Active.

For `C#CCN(C)CCCOc1ccc(Cl)cc1Cl` [CLORGILINE], the “inhibition (INH)” value in series [10] was “Active”.

Source of the values: ChEMBL document CHEMBL5370666, “Covalent Peptide LSD1 Inhibitor Specifically Recognizes Cys360 in the Enzyme-Active Region” (J Med Chem, 2023).
